Results taken from patent US7696174B2, “Short bio-active peptides for cellular and immunological modulation” (Helix Biomedix, Inc., priority 2007, dated 2010).
Entries after “also recorded” stand apart in the source; their conditions may differ. Read-outs that look alike come from different tables or passages of the source.

What was measured:
Type in all cases: cell-based
[1] = test system: PAM 212 murine epidermal keratinocyte; test: Cell proliferation assay, PAM 212 murine epidermal keratinocytes; details: for cell proliferation as a percent of control cell proliferation: control = cells treated with PBS only; for cell proliferation activity (in words): epidermal keratinocytes
Experimental: To examine this question, an overlapping set of peptide fragments of HB-107 was generated using standard solid phase peptide chemistry. These peptides were then assayed for cell proliferation activity at concentrations of 0.22, 2.15, 21.5 and 46.4 μg/mL.
The cell proliferation assays proceeded from the following experimental protocol:
Cell Proliferation Assay Using a Mouse Keratinocyte Cell Line.
OBJECTIVE: To determine the anti-proliferative or cytotoxic potential of a test article when applied to epidermal keratinocytes in culture.
TEST SYSTEM: Either the murine keratinocyte cell line PAM212 or primary Normal Human Epidermal Keratinocytes (NHEK, from Clonetics) are preferred models, although other cells may be used.
Keratinocytes are examined microscopically daily. As the culture becomes 50-75% confluent, the media in the plate is aspirated and 0.25% trypsin/EDTA is added (0.05% trypsin for human cells). When the cells become rounded, the trypsin is neutralized by addition of an equal volume of DMEM or KBM supplemented with approximately 10% bovine serum or by using trypsin neutralizing solution (TNS, from Clonetics). Cells are then centrifuged and the pellet is resuspended in 1 ml of DMEM-1 or KBM. A hemacytometer is used to count the cell suspension and the total number of cells/mL is adjusted to 1.5-2.5×10^4 cells/mL with DMEM-1 or KBM. Cells are then plated in 96-well plates at a concentration of 3.0-5.0×10^3 cells/well by adding 200 μL of the cell suspension to each well. Typically, the central 60 wells are used and the outer wells are filled with DMEM or PBS to minimize evaporation effects.
A stock solution of the test article is prepared using DMEM-1 or KBM, and all other dilutions are henceforth prepared from this solution. Typically, each dilution is filtered through an 0.2-μm filter before application to the cell culture. A 1.0% (w/v or v/v) solution or suspension is prepared, and 10-fold or 3-fold serial dilutions are made in culture medium.
The cells are examined 18-24 hours after plating to ensure cell attachment and division, and then 100 μL of the media is aspirated, leaving behind 100 μL in each well. Then 100 μL of a 2× concentration of each test article dilution is added to the replicate wells. For the negative control, 100 μL of the vehicle media (DMEM-1 or KBM) is added to the control wells. The microplate is then incubated at 37 degrees C. and 5.0% CO2 for 48-72 hours after dosing, and cells are allowed to proliferate undisturbed. Following this 48-72 hour exposure, all media is aspirated and proliferation is assessed by one of the below methods.
Option A: neutral red uptake. After exposure and aspiration of media, 200 μL of neutral red media is immediately added to each well. The microplate is returned to the incubator for an additional three hours. Following this dye uptake period, the microplate is removed from the incubator and gently inverted, and the neutral red media is decanted into a collection pan. The cells are then fixed with fixing solution for approximately one minute. The fixing solution is decanted off, and the microplate is washed gently three times with washing solution. The washing solution is decanted, and 200 μL of lysing solution is added. After at least 15 minutes, the contents of each well are re-pipetted to ensure even color distribution in each well, and an aliquot is read on the spectrophotometer as detailed below.
Option B: MTT conversion assay. After exposure and aspiration of media, 200 μL of MTT assay media is immediately added to each well. […] The microplate is returned to the incubator for an additional three hours. Following this dye uptake period, the microplate is removed from the incubator and gently inverted, and the MTT media is decanted into a collection pan. The cells are then washed gently three times with washing solution. The washing solution is decanted, and 200 μL of lysing solution is added. […]

[2] = test system: human epidermal keratinocyte; test: Keratinocyte cell migration assay (tissue culture scratch test); details: for cell migration activity (in words): scratch test
Description: Cell proliferation alone is not sufficient to aid in wound healing. Upon sustaining an injury, cells bordering the wound proliferate; the migration of such newly formed cells to close the injury (or chronic lesion of older, dysfunctional tissue) is of equal importance. To address this issue, HB-107 and peptide fragments thereof were examined using a keratinocyte cell migration assay based on a simple tissue culture scratch test. […] The protocol for this assay is standard and has been described by Shanley et al. (2004, Invest. Ophthalmol. Vis. Sci. 45:1088-1094), the article of which is herein incorporated by reference in its entirety.

[3] = test system: IL6 expression in epithelial cells; test: Repression of IL6 expression in resting epithelial cells; details: for % Change in IL6 expression / Change in IL6 versus PBS control: 20 μg/mL peptide
Description: The protocol for this assay is standard and described by Murakami et al. (2004, J. Immunol. 172:[…]), the article of which is incorporated herein by reference in its entirety.

[4] = 24 hr after addition of 20 μg/mL peptide
[5] = 48 hr after addition of 20 μg/mL peptide

| Substance | cell proliferation as a percent of control cell proliferation ([1]; 0.22 μg/mL peptide) [%] | cell proliferation as a percent of control cell proliferation ([1]; 2.15 μg/mL peptide) [%] | cell proliferation as a percent of control cell proliferation ([1]; 21.5 μg/mL peptide) [%] | cell proliferation as a percent of control cell proliferation ([1]; 46.4 μg/mL peptide) [%] | cell proliferation activity (in words) [1] | also measured |
| --- | --- | --- | --- | --- | --- | --- |
| KIEKMG (listed as Hyalophora cecropia) [HB-1072, fragment of HB-107] | 98 | 107 | 185 | 237 | significant increases in cell proliferation compared to induction by HB-107; also recorded: significant increase in the proliferation of epidermal keratinocytes at low concentrations | cell proliferation activity (in words) ([1]; listed as 6): strongest proliferative activity; cell proliferation activity (in words) ([1]; listed as SEQ ID NO:6): can induce cell proliferation; percent closure of the scratch compared to initial width ([2]; 6 hr exposure to peptide): 55%; percent closure of the scratch compared to initial width ([2]; 10 hr exposure to peptide): 77%; cell migration activity (in words) [2]: just as capable as HB-107 in inducing cell migration; also recorded: capable of increasing the migration of cells in a manner similar to that of the parent HB-107 peptide; cell migration activity (in words) ([2]; listed as SEQ ID NO:6): can induce cell proliferation and migration |
| KMGRNIRN (listed as Hyalophora cecropia) [HB-1060, fragment of HB-107] | 57 | 52 | 90 | 83 |  |  |
| GRNIRN (listed as Hyalophora cecropia) [HB-1062, fragment of HB-107] |  |  |  |  |  | percent closure of the scratch compared to initial width ([2]; 6 hr exposure to peptide): 0%; percent closure of the scratch compared to initial width ([2]; 10 hr exposure to peptide): 24%; cell migration activity (in words) [2]: no migratory activity |
| LKIEKMGRNIRN (listed as Hyalophora cecropia) [HB-1056, fragment of HB-107] | 48 | 39 | 64 | 97 |  |  |
| KEKVFLKIE (listed as Hyalophora cecropia) [HB-1076, fragment of HB-107] |  |  |  |  |  | IL6 reduction / anti-inflammatory activity in resting cells (in words) [3]: decrease the level of IL6 expression to the same degree as the HB-107 parent peptide; amount of IL6, Average [3, 4]: 266.7 pg/mL; amount of IL6, Well 1 [3, 4]: 278.32 pg/mL; amount of IL6, Well 2 [3, 4]: 255.08 pg/mL; % Change in IL6 expression ([3]; 24 hr): −17.60%; Change in IL6 versus PBS control ([3]; 24 hr): −56.8; amount of IL6, Average [3, 5]: 727.59 pg/mL; amount of IL6, Well 1 [3, 5]: 726.73 pg/mL; amount of IL6, Well 2 [3, 5]: 728.45 pg/mL; % Change in IL6 expression ([3]; 48 hr): −25.40%; Change in IL6 versus PBS control ([3]; 48 hr): −247.445; IL6 reduction / anti-inflammatory activity in resting cells (in words) ([3]; listed as SEQ ID NO:8): having anti-inflammatory activity |
| MGRNIRN (listed as Hyalophora cecropia) [HB-1061, fragment of HB-107] | 122 | 156 | 163 | 241 | significant increases in cell proliferation compared to induction by HB-107; also recorded: significant increase in the proliferation of epidermal keratinocytes at low concentrations | cell proliferation activity (in words) ([1]; listed as 3): strongest proliferative activity; cell proliferation activity (in words) ([1]; listed as SEQ ID NO:3): can induce cell proliferation; percent closure of the scratch compared to initial width ([2]; 6 hr exposure to peptide): 44%; percent closure of the scratch compared to initial width ([2]; 10 hr exposure to peptide): 67%; cell migration activity (in words) [2]: just as capable as HB-107 in inducing cell migration; also recorded: capable of increasing the migration of cells in a manner similar to that of the parent HB-107 peptide; cell migration activity (in words) ([2]; listed as SEQ ID NO:3): can induce cell proliferation and migration |
| EKMGRNIRN (listed as Hyalophora cecropia) [HB-1059, fragment of HB-107] | 95 | 128 | 162 | 186 |  | cell proliferation activity (in words) ([1]; listed as SEQ ID NO:2): strongest proliferative activity; also recorded: can induce cell proliferation |
| VFLKIEKMG (listed as Hyalophora cecropia) [HB-1071, fragment of HB-107] | 106 | 127 | 188 | 155 |  | cell proliferation activity (in words) ([1]; listed as 5): strongest proliferative activity; cell proliferation activity (in words) ([1]; listed as SEQ ID NO:5): can induce cell proliferation |
| KIEKMGRNIRN (listed as Hyalophora cecropia) [HB-1057, fragment of HB-107] | 121 | 118 | 171 | 167 |  | cell proliferation activity (in words) ([1]; listed as 9): strongest proliferative activity; cell proliferation activity (in words) ([1]; listed as SEQ ID NO:9): can induce cell proliferation |
| VFLKIEK (listed as Hyalophora cecropia) [HB-1074, fragment of HB-107] | 97 | 93 | 120 | 149 | can induce cell proliferation |  |
| MPKEKVFLKIEKMG (listed as Hyalophora cecropia) [HB-912, fragment of HB-107] | 100 | 84 | 125 | 137 | can induce cell proliferation |  |
